According to BindingDB's records for doi:10.1021/jm070574f (University of Copenhagen, 2007):

Molecular target: Neuronal acetylcholine receptor subunit alpha-7 (Homo sapiens, UniProt P36544)
Test: Antagonist activity at human alpha-7 nAChR in tsA201 cells coexpressed with Ric3 by FMP assay

Neuronal acetylcholine receptor subunit alpha-7, sequence (P36544 whole entry): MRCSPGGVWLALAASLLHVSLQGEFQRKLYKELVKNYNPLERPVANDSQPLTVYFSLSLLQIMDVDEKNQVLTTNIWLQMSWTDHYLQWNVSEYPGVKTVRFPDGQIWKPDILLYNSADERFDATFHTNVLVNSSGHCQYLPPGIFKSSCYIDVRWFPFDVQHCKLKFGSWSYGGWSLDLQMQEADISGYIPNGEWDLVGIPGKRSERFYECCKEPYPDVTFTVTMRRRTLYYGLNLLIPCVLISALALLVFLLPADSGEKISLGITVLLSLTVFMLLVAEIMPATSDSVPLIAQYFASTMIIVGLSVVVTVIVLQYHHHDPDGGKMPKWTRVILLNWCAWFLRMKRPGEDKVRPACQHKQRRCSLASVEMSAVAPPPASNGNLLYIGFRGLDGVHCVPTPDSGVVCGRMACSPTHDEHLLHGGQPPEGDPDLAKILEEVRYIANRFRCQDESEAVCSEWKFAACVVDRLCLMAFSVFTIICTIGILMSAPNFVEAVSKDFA

With CCN1C[C@]2(COC(=O)c3ccccc3-n3c(O)cc(C)c3O)CC[C@H](OC)[C@]34[C@@H]5C[C@H]6[C@H](OC)[C@@H]5[C@](O)(C[C@@H]6OC)[C@@](O)([C@H]13)[C@@H](OC)[C@H]24 [METHYLLYCACONITINE] the IC50 was 8.3 nM.
